Measured values from publication PMC11357256, “Selectivity Screening and Structure–Cytotoxic Activity Observations of Selected Oleanolic Acid (OA)-Type Saponins from the Amaranthaceae Family on a Wiade Panel of Human Cancer Cell Lines” (Molecules, 2024).

Legend:
Du-145 = test: MTT cell viability assay, Du-145 prostate carcinoma cells; assay type: cell-based; details: Homo sapiens
Source text: (§1) Cell lines used in the study were grouped as follows: skin panel (melanomas: HTB140, derived from metastatic site: lymph node, ATCC Hs 294 T; malignant A375, ATCC CRL-1619; stage I primary WM793, RRID:CVCL 8787; skin keratinocytes HaCaT); prostate panel (prostate carcinomas: Du145, derived from metastatic site: brain, ATCC HTB-81; grade IV PC3, derived from metastatic site: bone, ATCC CRL-1435, LNCaP, derived from the metastatic site: lymph node, ATCC CRL-1740; prostate epithelial, PNT2, ECACC 95012613); gastrointestinal panel (colorectal adenocarcinomas: Caco2, ATCC HTB-37, HT29, ATCC HTB-38, DLD-1, ATCC CCL-221, HCT116, ATCC CCL-247, and colon epithelial cells CCD 841 CoN, ATCC CRL-1790; hepatocellular carcinoma HepG2, ATCC HB-8065); thyroid panel (follicular thyroid carcinoma FTC133, ECACC 9406090, undifferentiated thyroid carcinoma 8505C, ECACC 94090184, papillary thyroid carcinoma TPC-1, SCC147, normal thyroid follicular epithelial Nthy-ori 3–1, ECACC 90011609); and breast panel (ER-positive breast adenocarcinoma MCF7, ATCC HTB-22; ER-negative breast adenocarcinoma MDA-MB-231, ATCC HTB-26; breast epithelial MCF10A, ATCC CRL-10317). Cells were grown under standard conditions (37 °C, 5% CO2, relative humidity), and culture media (DMEM/F12 for PNT2, WM 793, HT29, PC3, FTC133, 8505 C, MDA-MB-231, TPC-1; DMEM Low Glucose for DU145; DMEM High Glucose for HTB140, A375, HaCaT; MEM with NEAA for Caco2 and MCF7; RPMI1640 with sodium pyruvate for LNCaP; DMEM/F12 with 20 ng/mL epidermal growth factor (EGF), 10 μg/mL insulin, 0.5 μg/mL hydrocortisone, 100 ng/mL cholera toxin) for MCF10A) supplemented with 10% fetal bovine serum (FBS) or 5% donor horse serum for MCF10A, and 1% antibiotics solution (10,000 U penicillin and 10 mg streptomycin/mL) […], as previously described. All cell lines, culture media, and supplements were from Sigma-Aldrich (Germany).
(§2) The cells were seeded in 96-well plates (1.5 × 10^4 cells/well). After 24 h, fresh medium was added, containing the tested compounds (0.5–100 μg/mL) and incubated for 24 or 48 h. Cell viability was determined by MTT assay, according to the manufacturer’s instructions, as described previously. Each experiment was performed in triplicate. The absorbance was measured at 570 nm using a Biotek Synergy microplate reader (BioTek Instruments Inc., Winooski, VT, USA). Cell viability was expressed as a percent of control (untreated cells). Doxorubicin was used as a reference drug.

PC3 = test: MTT cell viability assay, PC3 prostate carcinoma cells; assay type: cell-based; details: Homo sapiens, PC-3
Source text: as §1, §2

LNCaP = test: MTT cell viability assay, LNCaP prostate adenocarcinoma cells; assay type: cell-based; details: Homo sapiens
Source text: as §1, §2

PNT2 = test: MTT cell viability assay, PNT2 normal prostate epithelial cells; assay type: cell-based; details: Homo sapiens
Source text: as §1, §2

MDA-MB-231 = test: MTT cell viability assay, MDA-MB-231 breast adenocarcinoma cells; assay type: cell-based; details: Homo sapiens
Source text: as §1, §2

MCF7 = test: MTT cell viability assay, MCF7 breast adenocarcinoma cells; assay type: cell-based; details: Homo sapiens
Source text: as §1, §2

MCF10A = test: MTT cell viability assay, MCF10A normal breast epithelial cells; assay type: cell-based; details: Homo sapiens, MCF-10A
Source text: as §1, §2

FTC133 = test: MTT cell viability assay, FTC133 follicular thyroid carcinoma cells; assay type: cell-based, human; details: for IC50: Homo sapiens, FTC-133
Source text: as §1, §2
(§3) The selectivity index (SI) was calculated from the following formula:SI = IC50 of compound in a normal cell line/IC50 of compound in cancer cell line.IC50, half maximal inhibitory concentration, is a concentration required to kill 50% of the cells.

8505C = test: MTT cell viability assay, 8505C undifferentiated thyroid carcinoma cells; assay type: cell-based, human; details: for IC50: Homo sapiens, 8505C; for Selectivity Index (SI): IC50 Nthy-ori 3-1 / IC50 8505C
Source text: as §1, §2, §3

TPC-1 = test: MTT cell viability assay, TPC-1 papillary thyroid carcinoma cells; assay type: cell-based, human; details: for IC50: Homo sapiens, TPC1
Source text: as §1, §2, §3

Nthy-ori 3-1 = test: MTT cell viability assay, Nthy-ori 3-1 normal thyroid epithelial cells; assay type: cell-based; details: Homo sapiens
Source text: as §1, §2

Caco-2 = test: MTT cell viability assay, Caco-2 colon cancer cells; assay type: cell-based; details: Homo sapiens
Source text: as §1, §2

HT29 = test: MTT cell viability assay, HT29 colorectal adenocarcinoma cells; assay type: cell-based; details: Homo sapiens, HT-29
Source text: as §1, §2

HepG2 = test: MTT cell viability assay, HepG2 hepatocellular carcinoma cells; assay type: cell-based; details: Homo sapiens
Source text: as §1, §2

DLD-1 = test: MTT cell viability assay, DLD-1 colon cancer cells; assay type: cell-based; details: Homo sapiens
Source text: as §1, §2

HCT116 = test: MTT cell viability assay, HCT116 colon cancer cells; assay type: cell-based; details: Homo sapiens, HCT-116
Source text: as §1, §2

CCD 841 CoN = test: MTT cell viability assay, CCD 841 CoN normal colon epithelial cells; assay type: cell-based; details: Homo sapiens
Source text: as §1, §2

HTB-140 = test: MTT cell viability assay, HTB-140 metastatic melanoma cells; assay type: cell-based, human; details: for IC50: Homo sapiens
Source text: as §1, §2, §3

A375 = test: MTT cell viability assay, A375 malignant melanoma cells; assay type: cell-based, human; details: for IC50: Homo sapiens, A-375
Source text: as §1, §2, §3

WM793 = test: MTT cell viability assay, WM793 primary melanoma cells; assay type: cell-based, human; details: for IC50: Homo sapiens
Source text: as §1, §2, §3

HaCaT = test: MTT cell viability assay, HaCaT keratinocytes; assay type: cell-based; details: Homo sapiens
Source text: as §1, §2

SMILES: CC1(C)CCC2(C(=O)O)CCC3(C)C(=CCC4C5(C)CCC(OC6OC(C(=O)O)C(O)C(OC7OCC(O)C(O)C7O)C6O)C(C)(C)C5CCC43C)C2C1 [MIc, oleanolic acid-3-O-[β-D-xylopyranosyl(1→3)-β-D-glucuronopyranoside]]
- IC50 (Du-145; DU-145, 24 h): 5.4 µg/mL
- IC50 (Du-145; DU-145, 48 h): 2.8 µg/mL
- IC50 (PC3; PC3, 24 h): 5.5 µg/mL
- IC50 (PC3; PC3, 48 h): 3.4 µg/mL
- IC50 (LNCaP; 24 h): > 100 µg/mL
- IC50 (LNCaP; 48 h): > 100 µg/mL
- IC50 (PNT2; 24 h): > 100 µg/mL
- IC50 (PNT2; 48 h): > 100 µg/mL
- IC50 (MDA-MB-231; MDA-MB-231, 24 h): 52.2 µg/mL
- IC50 (MDA-MB-231; MDA-MB-231, 48 h): 16.4 µg/mL
- IC50 (MCF7; MCF7, 24 h): > 100 µg/mL
- IC50 (MCF7; MCF7, 48 h): 29.2 µg/mL
- IC50 (MCF10A; 24 h): > 100 µg/mL
- IC50 (MCF10A; 48 h): > 100 µg/mL
- IC50 (FTC133; FTC133, 24 h): 3.5 µg/mL
- IC50 (FTC133; FTC133, 48 h): 2.1 µg/mL
- Selectivity Index (SI) (FTC133; IC50 Nthy-ori 3-1 / IC50 FTC133, 24 h): 24.85
- Selectivity Index (SI) (FTC133; IC50 Nthy-ori 3-1 / IC50 FTC133, 48 h): 30.7
- IC50 (8505C; 24 h): 10.6 µg/mL
- IC50 (8505C; 48 h): 5.2 µg/mL
- Selectivity Index (SI) (8505C; 24 h): 8.2
- Selectivity Index (SI) (8505C; 48 h): 12.2
- IC50 (TPC-1; TPC-1, 24 h): 39 µg/mL
- IC50 (TPC-1; TPC-1, 48 h): 39 µg/mL
- Selectivity Index (SI) (TPC-1; IC50 Nthy-ori 3-1 / IC50 TPC-1, 24 h): 2.2
- Selectivity Index (SI) (TPC-1; IC50 Nthy-ori 3-1 / IC50 TPC-1, 48 h): 1.6
- IC50 (Nthy-ori 3-1; 24 h): 86.2 µg/mL
- IC50 (Nthy-ori 3-1; 48 h): 64.4 µg/mL
- IC50 (Caco-2; Caco-2, 24 h): 7 µg/mL
- IC50 (Caco-2; Caco-2, 48 h): 4.3 µg/mL
- IC50 (HT29; HT29, 24 h): 4.2 µg/mL
- IC50 (HT29; HT29, 48 h): 2.9 µg/mL
- IC50 (HepG2; HepG2, 24 h): 12.5 µg/mL
- IC50 (HepG2; HepG2, 48 h): 9.5 µg/mL
- IC50 (DLD-1; DLD-1, 24 h): 16 µg/mL
- IC50 (DLD-1; DLD-1, 48 h): 8 µg/mL
- IC50 (HCT116; HCT116, 24 h): 9.4 µg/mL
- IC50 (HCT116; HCT116, 48 h): 8.3 µg/mL
- IC50 (CCD 841 CoN; 24 h): > 100 µg/mL
- IC50 (CCD 841 CoN; 48 h): > 100 µg/mL
- IC50 (HTB-140; HTB-140, 24 h): 7.8 µg/mL
- IC50 (HTB-140; HTB-140, 48 h): 3 µg/mL
- Selectivity Index (SI) (HTB-140; IC50 HaCaT / IC50 HTB-140, 24 h): 0.7
- IC50 (A375; A375, 24 h): 1.9 µg/mL
- IC50 (A375; A375, 48 h): 0.9 µg/mL
- Selectivity Index (SI) (A375; IC50 HaCaT / IC50 A375, 24 h): 2.7
- IC50 (WM793; WM793, 24 h): 2 µg/mL
- IC50 (WM793; WM793, 48 h): 1 µg/mL
- Selectivity Index (SI) (WM793; IC50 HaCaT / IC50 WM793, 24 h): 2.6
- Selectivity Index (SI) (WM793; IC50 HaCaT / IC50 WM793, 48 h): 2.7
- IC50 (HaCaT; 24 h): 5.3 µg/mL
- IC50 (HaCaT; 48 h): 2.7 µg/mL
